# Measured values: patent EP0044443A1, “Cycloalkano-thiazolyloxamidic-acid derivatives, process for their preparation and pharmaceutical compositions containing them” (BASF Aktiengesellschaft, priority 1980, dated 1982)
# What was measured:
# [1] = Acute toxicity, mouse, intraperitoneal; settings: in vivo, ip, read-out: LD 50 Maus i.p.
# Excerpt: (§1) Außer der antiallergischen Wirkung wurde die akute Toxizität an Gruppen von je 2 NMRI-Mäusen, Gewicht 20 bis 26 g, bei intraperitonealer Applikation und an je 2 Sprangue--Dawley-Ratten, Gewicht 120 bis 150 g, bei oraler Applikation ermittelt. Die Bestimmung der LD 50 erfolgte an Gruppen von je 10 NMRI-Mäusen, Gewicht 20 bis 26 g,nach intraperitonealer Applikation. Die Nachbeobachtungszeit betrug 14 Tage.
# [2] = system: passiven cutanen Anaphylaxie (PCA); assay: Passive cutaneous anaphylaxis (PCA) in rats sensitised with ovalbumin antiserum; assay type: in vivo, Ratte; settings: for ED50: Rattus norvegicus, dose reducing diameter of dye spots by 50 % vs untreated controls, read-out: Hemmung der PCA Ratte ED 50 %; for ED50 / Hemmung der PCA Ratte R.W. (Relative Wirksamkeit) / mal wirksamer als die Vergleichsverbindung V1: oral administration; for inhibition in vivo at 1 mg/kg: ip, read-out: % Hemmung X ± SX; for inhibition in vivo at 1 mg/kg / % Hemmung X ± SX: intraperitoneal, 1 mg/kg test substance, mean ± SX; for Hemmung der PCA Ratte R.W. (Relative Wirksamkeit): relative to V1 = 1,00
# Protocol: Die antiallergische Wirkung wurde an Ratten getestet. Zur ' Prüfung wurde das Modell der passiven cutanen Anaphylaxie (PCA) verwendet.
# Narkotisierte männliche Ratten (100 bis 140 g) werden durch intradermale Injektion (rasierte Rückenhaut) von 0,1 ml eines Ovalbumin-Antiserums sensibilisiert. Nach einer Sensibilisierungsperiode von ca. 48 Stunden erfolgt die Behandlung (intraperitoneale bzw. orale Applikation) mit unterschiedlichen Dosierungen (10 Tiere/Dosis) der Prüfsubstanzen. 15 bis 20 Minuten nach der Behandlung wird eine Antigen/Evansblau-Hischung (10 mg/kg Ovalbumin in 2 %iger Evansblau-Lösung) den Versuchstieren intravenös injiziert. 30 Minuten später werden die Tiere getötet, die Rückenhaut abgezogen und auf der inneren Oberfläche der Durchmesser der kreisförmigen Blaufärbung gemessen. Die Größe der Farbflecke unbehandelter Kontrolltiere ist standardisierbar. Antiallergisch wirksame Substanzen verkleinern dosisabhängig den Durchmesser der Farbflecke. Als ED 50 % wird die Dosis angegeben die im Vergleich zu medikamentös unbehandelten Kontrolltieren den Durchmesser der Farbflecke um 50 % herabsetzt.
# [3] = Acute toxicity, rat, oral; settings: in vivo, read-out: LD 50 Ratte p.o.
# Excerpt: as §1
# [4] = Water solubility (remark in synthesis example); assay type: physicochemical
# [5] = NMRI mice, intraperitoneal, 14 days observation
# [6] = Sprague-Dawley rats, oral, 14 days observation
Compound,ED50 [2] [mg/kg],inhibition in vivo at 1 mg/kg ([2]; PCA rat) [%],Hemmung der PCA Ratte R.W. (Relative Wirksamkeit) [2],"LD50 at 336 h [3, 6] [mg/kg]",also measured
"CCOC(=O)C(=O)Nc1nc2c(s1)CCC2 [Beispiel 1, N-(Cyclopentano[1,2-d]thiazol-2-yl)-oxamidsäureethylester]",1.59,25 ± 4.7,"5,40",> 2150,"LD50 at 336 h [1, 5]: ~464 mg/kg"
"CCOC(=O)C(=O)Nc1nc2c(s1)CCCC2 [Beispiel 2, N-(Cyclohexano[1,2-d]thiazol-2-yl)-oxamidsäureethylester]",,61 ± 8.8,"11,90",,LD50 at 336 h [1]: 422 mg/kg; mal wirksamer als die Vergleichsverbindung V1 ([2]; PCA rat): 11.9; LD50 at 336 h ([3]; po): > 2150 mg/kg
"CCOC(=O)C(=O)Nc1nc2c(s1)C(C)(C)CC(C)(C)C2 [Beispiel 4, N-(5,5,7,7-Tetramethylcyclohexano[1,2-d]thiazol-2-yl)-oxamidsäureethylester]",,15 ± 3.5,,,
"CCOC(=O)C(=O)Nc1nc2c(s1)CCCCC2 [Beispiel 5, N-(Cycloheptano[1,2-d]thiazol-2-yl)oxamidsäureethylester]",,34 ± 6,,,
"O=C(O)C(=O)Nc1nc2c(s1)CCCC2 [Beispiel 6, N-(Cyclohexano[1,2-d]thiazol-2-yl)-oxamidsäure]",3.09,63 ± 6.6,"2,78",,"LD50 at 336 h [1]: ~464 mg/kg; mal wirksamer als die Vergleichsverbindung V1 ([2]; PCA rat): 2,8; LD50 at 336 h ([3]; po): > 2150 mg/kg"
CC(C)(C)OC(=O)C(=O)Nc1nc2c(s1)CCCC2 [Beispiel 7],2.35,33 ± 7.9,"3,65",> 2150,
"O=C(O)c1cc(=O)c2c(OCC(O)COc3cccc4oc(C(=O)O)cc(=O)c34)cccc2o1 [Cromolyne, reference compound]",100,21 ± 3.6,,> 2150,"antiallergische Wirkung nach oraler Applikation ([2]; PCA rat, up to 100 mg/kg p.o.): unwirksam"
"CCOC(=O)C(=O)Nc1nc2ccccc2s1 [V1, N-Benzthiazol-2-yl-oxamidsäureethylester, reference compound]",8.6,26 ± 6.5,"1,00",> 2150,"LD50 at 336 h [1, 5]: ~464 mg/kg"
"N-(6-tert.-Butylcyclohexano[1,2-d]thiazol-2-yl)-oxamidsäureethylester [Beispiel 3]",,,,,"% Hemmung X ± SX ([2]; PCA rat): 14 ± 4,1%"
"N-(Cyclohexano[1,2-d]thiazol-2-yl)-oxamidsäure-ethanol- aminsalz [Beispiel 8]",,,,,"Wasserlöslichkeit [4]: gut wasserlöslichen; % Hemmung X ± SX ([2]; PCA rat): 73 ± 7,5%"
